Measured values from PMC6028122, “Thermostabilization and purification of the human dopamine transporter (hDAT) in an inhibitor and allosteric ligand bound conformation” (PLoS ONE, 2018).

Target: T1, human dopamine transporter (hDAT) (Homo sapiens, UniProt Q01959, I248Y)
T1 construct: gene SLC6A3; hDAT-I248Y expressed in HEK293S cells
Type: cell-based

T1 sequence (Q01959 whole entry I248Y): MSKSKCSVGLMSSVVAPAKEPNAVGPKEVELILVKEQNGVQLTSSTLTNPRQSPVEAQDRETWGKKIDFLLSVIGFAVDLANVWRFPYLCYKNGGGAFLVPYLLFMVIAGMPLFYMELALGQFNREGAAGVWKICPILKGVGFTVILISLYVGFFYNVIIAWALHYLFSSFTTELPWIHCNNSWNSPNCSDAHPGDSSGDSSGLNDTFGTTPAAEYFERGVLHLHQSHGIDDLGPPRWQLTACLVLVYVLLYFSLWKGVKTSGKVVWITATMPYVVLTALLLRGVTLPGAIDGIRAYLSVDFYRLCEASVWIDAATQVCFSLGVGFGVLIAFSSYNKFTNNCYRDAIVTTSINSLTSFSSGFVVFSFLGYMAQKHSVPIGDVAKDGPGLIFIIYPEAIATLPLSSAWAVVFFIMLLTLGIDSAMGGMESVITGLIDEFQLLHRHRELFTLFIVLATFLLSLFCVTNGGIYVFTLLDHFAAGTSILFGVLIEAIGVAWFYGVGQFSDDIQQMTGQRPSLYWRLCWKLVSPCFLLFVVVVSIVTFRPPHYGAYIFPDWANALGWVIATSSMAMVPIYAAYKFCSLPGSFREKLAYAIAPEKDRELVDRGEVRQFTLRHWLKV

SMILES: NCCc1ccc(O)c(O)c1 [dopamine]
- [3H]dopamine uptake in cells: the I248Y mutant was also able to transport dopamine (S2 Fig)
